In patent US20250368606A1, “CRYSTALLINE FORMS AND SALT FORMS OF A KINASE INHIBITOR” (Exelixis, Inc., priority 2021, published 2025):
Each block holds one compound with its values, some of them ahead of it.

Key:
Assay type in all cases: physicochemical
[1] = Visual (aqueous) solubility estimation; conditions: water, thermodynamic from solid, visual observation
Method: Solubility Estimation: Aliquots of various solvents were added to measured amounts of Compound 1 with agitation (typically sonication) at stated temperatures until complete dissolution was achieved, as judged by visual observation.
Aqueous Solubility Estimation: Aliquots of water were added to measured amounts of various Compound 1 salts with sonication.

[2] = Physical stability (form conversion) of solid forms
[3] = Desolvation / drying attempts at elevated temperature, solids analysed by XRPD
Method: Vacuum Oven Desolvation: Salts of Compound 1 that were determined to be solvates by various analytical methods underwent an attempted desolvation. […] Samples were analyzed by XRPD and/or TGA for determination of desolvation success.

[4] = dried under vacuum at 80° C. for 1 day

solubility [1]: < 250 µg/mL | physical stability: resulting form on exposure to elevated temperature ([2]; elevated temperature): Material K
SMILES: CNC(=O)c1cc2c(Oc3ccc(NC(=O)C4(C(=O)Nc5ccc(F)cc5)CC4)cc3)ccnc2cc1OC [Amorphous Compound 1, N-(4-fluorophenyl)-N-(4-((7-methoxy-6-(methylcarbamoyl)quinolin-4-yl)oxy)phenyl)cyclopropane-1,1-dicarboxamide]
physical stability: resulting form on contact with diethyl ether ([2]; immediately on contact with diethyl ether): crystallized to a mixture of Forms X and K

physical stability of the solvate ([2]; likely NMP solvate, only obtained as a mixture with Form A): readily converts to Form A
SMILES: CNC(=O)c1cc2c(Oc3ccc(NC(=O)C4(C(=O)Nc5ccc(F)cc5)CC4)cc3)ccnc2cc1OC [Compound 1 Form S]

SMILES: CNC(=O)c1cc2c(Oc3ccc(NC(=O)C4(C(=O)Nc5ccc(F)cc5)CC4)cc3)ccnc2cc1OC [Compound 1 Hemifumarate Form C]
form of post-drying solids (XRPD) [3, 4]: a mixture of Hemifumarate Form B, with trace Compound 1 free base Form A, and a few additional peaks

SMILES: CNC(=O)c1cc2c(Oc3ccc(NC(=O)C4(C(=O)Nc5ccc(F)cc5)CC4)cc3)ccnc2cc1OC [Compound 1 Hemifumarate Form D]
form of post-drying solids (XRPD) [3, 4]: a mixture of Compound 1 free base Form A and Compound 1 Hemifumarate Form B

XRPD Results after desolvation attempt ([3]; 105-120° C. vacuum, 2 hours): Form K | XRPD Results after desolvation attempt ([3]; 110° C., 1 hour): Form K + X
SMILES: CNC(=O)c1cc2c(Oc3ccc(NC(=O)C4(C(=O)Nc5ccc(F)cc5)CC4)cc3)ccnc2cc1OC [Form R]

XRPD Results after desolvation attempt ([3]; 60° C.-72° C. vacuum 6 days): Form T + Form U | XRPD Results after desolvation attempt ([3]; 70° C. vacuum 3 days): Form U + Form T | XRPD Results after desolvation attempt ([3]; 105-120° C. vacuum, 2 hours): Form T (blue grey) | XRPD Results after desolvation attempt ([3]; 170° C. 15 minutes): Form T + Form A (grey brown)
SMILES: CNC(=O)c1cc2c(Oc3ccc(NC(=O)C4(C(=O)Nc5ccc(F)cc5)CC4)cc3)ccnc2cc1OC [Form U]

form of post-drying solids (XRPD) ([3]; dried under vacuum at 72° C. for 1 day): unique disordered crystalline pattern
SMILES: CNC(=O)c1cc2c(Oc3ccc(NC(=O)C4(C(=O)Nc5ccc(F)cc5)CC4)cc3)ccnc2cc1OC [Hemifumarate Form E]

form of post-drying solids (XRPD) ([3]; post-drying sample further dried under vacuum at 88° C. for 1 day): maintained the same form
SMILES: CNC(=O)c1cc2c(Oc3ccc(NC(=O)C4(C(=O)Nc5ccc(F)cc5)CC4)cc3)ccnc2cc1OC [Hemifumarate Form F]

physical stability under drying conditions (XRPD) ([3]; 120° C. for 30 minutes): A mixture of Napsylate Form B and Form C
SMILES: CNC(=O)c1cc2c(Oc3ccc(NC(=O)C4(C(=O)Nc5ccc(F)cc5)CC4)cc3)ccnc2cc1OC [Napsylate Form A]
physical stability under drying conditions (XRPD) ([3]; 48° C. under vacuum for approximately 3 days): XRPD peaks attributed to Napsylate Form B increased in intensity
